# Assay results from ChEMBL document CHEMBL5352411, “Synthesis and investigation of the trypanocidal potential of novel 1,2,3-triazole-selenide hybrids” (Eur J Med Chem, 2022).
# Assays:
# [1] = Selectivity index, ratio of CC50 for HFF-1 cells to IC50 for intracellular amastigote form of Trypanosoma cruzi Tulahuen expressing Escherichia coli LacZ gene infected in HFF-1 cells; format: toxicity; conditions: human, read-out: Selectivity Index
# Trypanosoma cruzi = experiment: Antitrypanosomal activity against intracellular amastigote form of Trypanosoma cruzi Tulahuen expressing Escherichia coli LacZ gene infected in HFF-1 cells incubated for 120 hrs by automated microplate reader; format: functional, organism-based; conditions: HFF-1, 120 h
# [2] = Electrochemical behavior of the compound assessed as oxidation onset potential by cyclic voltammetry analysis relative to normal hydrogen electrode; format: physicochemical
# [3] = Cytotoxicity against HFF-1 cells incubated for 72 hrs by MTS tetrazolium assay; format: toxicity, cell-based; conditions: human
# [4] = Electrochemical behavior of the compound assessed as reduction onset potential by cyclic voltammetry analysis relative to normal hydrogen electrode; format: physicochemical
Compound,selectivity ratio [1],IC50 (Trypanosoma cruzi) [µM],Ep [2] [V],CC50 at 72 h [3] [µM],Ep [4] [V]
Cc1ccccc1-n1cc(C[Se]c2ccccc2)nn1,> 6.5,9.8,0.83,,
c1ccc(SCc2cn(-c3ccccc3)nn2)cc1,,21.2,1.06,,
COc1ccc(-n2cc(C[Se]c3ccccc3)nn2)cc1,> 5,12.7,0.75,> 64,
Cc1cccc(-n2cc(C[Se]c3ccccc3)nn2)c1,> 7,9.2,0.84,> 64,
FC(F)(F)c1cccc([Se]Cc2cn(-c3ccccc3)nn2)c1,> 11.9,5.4,0.97,> 64,-0.92
Cc1cc(C)c([Se]Cc2cn(-c3ccccc3)nn2)c(C)c1,,39.2,1.03,,
Cc1ccc([Se]Cc2cn(-c3ccccc3)nn2)cc1,8.4,7.4,0.81,56.1,
c1ccc(-n2cc(C[Se]c3cccc4ccccc34)nn2)cc1,> 20.6,3.1,0.96,> 64,-0.82
Clc1ccccc1-n1cc(C[Se]c2ccccc2)nn1,> 4.2,15.2,0.83,> 64,
Fc1ccc([Se]Cc2cn(-c3ccccc3)nn2)cc1,> 5.5,11.6,0.76,62.5,
O=[N+]([O-])c1ccc(-n2cc(C[Se]c3ccccc3)nn2)cc1,,> 64,0.9,,-1.11
c1ccc([Se]Cc2cn(-c3ccccc3)nn2)cc1,5.9,8.2,0.79,48,
Clc1ccc([Se]Cc2cn(-c3ccccc3)nn2)cc1,3.3,16.8,0.84,> 64,
Cc1ccc(-n2cc(C[Se]c3ccccc3)nn2)cc1,> 6.9,9.3,0.85,> 64,
c1ccc(-n2cc(C[Se]c3cccs3)nn2)cc1,2.8,15.6,1.22,43.1,
Clc1ccc(-n2cc(C[Se]c3ccccc3)nn2)cc1,> 5.6,11.5,0.81,> 64,
O=C(Cn1ccnc1[N+](=O)[O-])NCc1ccccc1 [BENZNIDAZOLE],> 30.5,2.1,,> 64,
